# Results published in US20130197077A1, “Bicyclic Furanones with Low Toxicity for Microbial Control” (priority 2012, published 2013).
# How the values were obtained:
# E. coli RP437 = tested on: E. coli RP437
# Source text: FIG. 10 is a graph comparing the cytotoxicity of the exemplary bicyclic brominated furanones according to the present invention verses an exemplary conventional brominated furanone relative to E. Coli RP437;
# 3T3 mouse fibroblasts = assay: Cytotoxicity to mammalian cells, survival (%) by OD450; type: cell-based; settings: 100 μM; 0 h, 24 h and 48 h recovery after removal of drugs
# Experimental: (§1) In this test, the mammalian cells used were 3T3 mouse fibroblasts and SK-N-SH human neuroblastomas, and 0 h, 24 h, and 48 h, refer to recovery time of cells after removal of drugs. At the beginning of the experiment, the survival of the cells is assumed to be 100 percent. The survival percentage is calculated using the following formula: […]
# (§2) The sample OD was obtained from the wells containing cells and drugs, and the control OD was obtained from wells containing cells+1% DMSO.
# [1] = tested on: SK-N-SH human neuroblastoma; assay: as above; type: cell-based; settings: 100 μM; 0 h, 24 h and 48 h recovery after removal of drugs
# Experimental: as §1, §2
structure (smiles),measurement,setting,value
CC1=C(Br)/C(=C/Br)OC1=O [BF8],toxicity to the growth of E. coli RP437,E. coli RP437,more toxic
same,cytotoxicity to 3T3 mouse fibroblasts,3T3 mouse fibroblasts,cytotoxic
same,cytotoxicity to SK-N-SH human neuroblastomas,[1],cytotoxic
